{"source": "paper PMC10287566", "about": "“Signaling-specific inhibition of the CB1 receptor for cannabis use disorder: phase 1 and phase 2a randomized trials” (Nature Medicine, 2023)", "key": {"[1]": {"target": "T1, hERG (human ether-a-go-go-related gene) (Homo sapiens, UniProt Q12809)", "T1 construct": "expressed in transfected cells; host or cells: HEK293 (stably transfected)", "T1 sequence (Q12809 whole entry)": "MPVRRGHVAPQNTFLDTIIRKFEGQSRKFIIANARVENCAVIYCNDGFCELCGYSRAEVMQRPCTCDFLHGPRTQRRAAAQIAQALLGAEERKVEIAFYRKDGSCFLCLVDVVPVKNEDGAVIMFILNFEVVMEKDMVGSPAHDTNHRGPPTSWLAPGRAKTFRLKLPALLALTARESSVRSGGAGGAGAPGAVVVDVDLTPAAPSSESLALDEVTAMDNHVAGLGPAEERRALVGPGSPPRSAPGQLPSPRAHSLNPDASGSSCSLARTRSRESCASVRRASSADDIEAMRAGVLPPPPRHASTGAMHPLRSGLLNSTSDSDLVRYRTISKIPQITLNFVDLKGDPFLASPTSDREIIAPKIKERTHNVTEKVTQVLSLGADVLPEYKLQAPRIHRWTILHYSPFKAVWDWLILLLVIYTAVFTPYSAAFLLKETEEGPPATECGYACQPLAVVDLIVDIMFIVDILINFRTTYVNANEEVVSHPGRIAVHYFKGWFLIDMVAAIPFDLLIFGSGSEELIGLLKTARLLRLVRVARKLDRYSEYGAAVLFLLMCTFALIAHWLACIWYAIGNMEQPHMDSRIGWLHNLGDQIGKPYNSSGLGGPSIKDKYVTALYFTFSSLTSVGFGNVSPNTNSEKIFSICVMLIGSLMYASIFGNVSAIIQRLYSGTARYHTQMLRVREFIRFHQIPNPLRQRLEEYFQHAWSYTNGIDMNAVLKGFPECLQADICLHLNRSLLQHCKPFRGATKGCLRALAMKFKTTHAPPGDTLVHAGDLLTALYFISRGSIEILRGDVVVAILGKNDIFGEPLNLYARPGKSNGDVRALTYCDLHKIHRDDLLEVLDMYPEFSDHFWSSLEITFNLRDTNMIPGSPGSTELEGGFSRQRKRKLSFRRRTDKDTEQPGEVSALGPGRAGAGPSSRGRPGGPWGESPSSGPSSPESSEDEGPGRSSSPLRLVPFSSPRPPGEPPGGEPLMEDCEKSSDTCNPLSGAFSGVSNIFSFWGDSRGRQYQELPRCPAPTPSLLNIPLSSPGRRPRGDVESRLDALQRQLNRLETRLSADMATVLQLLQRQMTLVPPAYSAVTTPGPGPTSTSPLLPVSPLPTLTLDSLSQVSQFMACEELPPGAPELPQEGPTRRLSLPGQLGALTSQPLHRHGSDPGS", "assay": "hERG tail current in transfected HEK293 cells (GLP)", "assay_type": "cell-based", "conditions": "GLP safety pharmacology", "experimental": "Cells were clamped to −80 mV, depolarized to 0 mV for 5 s allowing activation of hERG current and repolarized to −50 mV for 5 s allowing hERG tail current to deactivate. This experimental procedure was repeated at a frequency of 0.06 Hz. Currents were filtered at 1 kHz and acquired at the frequency of 2 kHz. Amplitude of hERG tail current was measured during the repolarizing pulse from 0 to −50 mV. […] Currents were measured before and after exposure to the test compound. The individual data were collected using pClamp software (release 8.2, AXON Instruments, Molecular Devices)."}, "[2]": {"test_system": "squirrel monkeys", "assay": "i.v. self-administration of THC in squirrel monkeys", "assay_type": "in vivo, Saimiri sciureus", "excerpt": "Two experimental models were used: (1) THC i.v. self-administration and (2) THC-induced reinstatement of THC seeking. These two approaches were used to model the maintenance of daily cannabis use and cannabis seeking after a period of abstinence.\nFor the self-administration experiments, four male squirrel monkeys (800–1,100 g; the estimated age was 17 years for three monkeys and 14 years for the fourth one) were used because this species reliably self-administers i.v. THC. Monkeys were trained to lever press for an i.v. injection of THC (4 µg kg^–1 per injection) under a 10-response fixed ratio schedule of drug injection (FR10; each 10th response on the lever produced an injection of THC, followed by a 60-s timeout). Number of lever presses and number of injections per session were recorded."}, "[3]": {"test_system": "mice", "assay": "THC-induced increase in psychomotor stimulation (open field)", "assay_type": "in vivo"}, "[4]": {"test_system": "mice", "assay": "THC-induced decrease in social interaction", "assay_type": "in vivo"}, "[5]": {"test_system": "healthy volunteers", "assay": "Phase 1 multiple-ascending-dose (MAD) study, safety", "experimental": "Four single oral dose levels (0.2, 0.6, 2 and 6 mg) were given in the morning on day 1 in the SAD study, and three oral doses (0.6, 2 and 6 mg) were given in the morning of day 1 to day 7 in the MAD study, to independent dose cohorts. […] Each dose cohort comprised eight volunteers (six (5/1) active and two (1/1) placebo per dose level).\nIn the MAD study, each randomized participant received a single oral dose per day on days 1 through 7. […] As an approximation, plasma PK concentrations and parameters were presented for all participants as if occurring on day 7.\nParticipants were admitted to the research clinic at midday before dosing (day −1). In the SAD study, they remained in-house until day 8 for PK and PD samples and safety assessments. In the MAD study, participants remained in-house until day 14 and returned to the research facility on an outpatient basis to have PK and safety assessments at 216 h and 264 h (day 16 and day 18) after their last dose (day 7). Safety monitoring (physical examinations, vital sign measurements, 12-lead ECGs, clinical safety laboratory tests and AE monitoring) were performed throughout the studies. Psychometrics tests (Bond & Lader VAS, Addiction Research Center Inventory (49-item short form) (ARCI-49) and Profile of Mood States 65 self-report items (POMS-65)) and the Columbia-Suicide Severity Rating Scale (C-SSRS) test were performed at baseline, before dose and at 4 h and 24 h after dose on day 1 and day 7 (MAD study, only) and C-SSRS only at 24 h.\nAll participants who had AEs, whether considered associated with the use of the investigational product or not, were monitored for as long as needed to determine resolution."}, "[6]": {"test_system": "volunteers with CUD", "assay": "Phase 2a study, cannabis self-administration", "assay_type": "in vivo, human", "experimental": "Participants, in groups of 3−4, completed two 5-d inpatient periods (first period ‘A’ and second period ‘B’) separated by a ≥ 14-d outpatient washout. During the two testing periods, participants received AEF0117 or matching placebo in counterbalanced order (two dosing sequences: AEF0117 first or placebo first). Participants took capsules at 9:00 each day and then smoked a controlled amount of cannabis (approximately 67 mg of THC smoked over 6 min) 3.5 h later (12:30). Ratings of the subjective effects of cannabis were done five times after cannabis administration (20 min, 40 min, 60 min, 90 min and 120 min after cannabis) using a VAS (0–100 mm). […] Participants were told that the cannabis strength could vary from day to day and between participants but that the cannabis they each received at 12:30 that day was the strength available for self-administration that day.\nOn study days 2–5, beginning at 14:30, participants were given the option to self-administer individual puffs of cannabis (up to six puffs per timepoint) every 2 h until 20:30 (maximum of 24 puffs per day). Fifteen minutes before each self-administration opportunity, participants indicated the number of puffs they chose to purchase ($2 per puff), and they would pay for it (using faux money that was then subtracted from their study stipend) before receiving their individual ashtray, cannabis cigarette and lighter."}, "[7]": {"test_system": "AR (androgen receptor)", "assay": "Eurofins binding screen", "conditions": "10 µM"}, "[8]": {"conditions": "Increase in psychomotor stimulation"}, "[9]": {"conditions": "Impairment of social interaction"}}}
{"smiles": "COc1ccc(CO[C@H]2CC[C@@]3(C)C(=CC[C@H]4[C@@H]5CC[C@H](C(C)=O)[C@@]5(C)CC[C@@H]43)C2)cc1", "note": "[AEF0117, 3β-(4-methoxybenzyloxy)pregn-5-en-20-one]", "values": [{"measurement": "adverse effects on hERG tail current", "setting": "[1]", "result": "did not show any adverse effects"}, {"measurement": "i.v. self-administration of THC", "setting": "[2]; 15 µg kg^−1 oral", "result": "significantly reduced"}, {"measurement": "% Inhibition", "setting": "[2]; Self-administration of THC", "result": 80, "unit": "%"}, {"measurement": "ID50", "setting": "[2]; Self-administration of THC", "result": 5, "unit": "µg/kg"}, {"measurement": "ID100", "setting": "[2]; Self-administration of THC", "result": 15, "unit": "µg/kg"}, {"measurement": "THC-increased psychomotor stimulation", "setting": "[3]", "result": "inhibited"}, {"measurement": "% Inhibition", "setting": "[3]; [8]", "result": 100, "unit": "%"}, {"measurement": "ID50", "setting": "[3]; [8]", "result": 0.36, "unit": "µg/kg"}, {"measurement": "ID100", "setting": "[3]; [8]", "result": 1.5, "unit": "µg/kg"}, {"measurement": "THC's effects on social interaction", "setting": "[4]", "result": "inhibited"}, {"measurement": "% Inhibition", "setting": "[4]; [9]", "result": 100, "unit": "%"}, {"measurement": "ID50", "setting": "[4]; [9]", "result": 5, "unit": "µg/kg"}, {"measurement": "ID100", "setting": "[4]; [9]", "result": 15, "unit": "µg/kg"}, {"measurement": "Number of TEAEs", "setting": "[5]; 0.6 mg/d 7 d", "result": 7, "unit": "E"}, {"measurement": "Number of participants with a TEAE leading to discontinuation", "setting": "[5]; 0.6 mg/d 7 d", "result": "1 (16.7) n (%)"}, {"measurement": "Number of participants with an SAE", "setting": "[5]; 0.6 mg/d 7 d", "result": "0 n (%)"}, {"measurement": "Number of participants with at least one TEAE", "setting": "[5]; 0.6 mg/d 7 d", "result": "3 (50.0) n (%)"}, {"measurement": "Participants with TEAE: Mild", "setting": "[5]; 0.6 mg/d 7 d", "result": "2 (33.3) n (%)"}, {"measurement": "Participants with TEAE: Moderate", "setting": "[5]; 0.6 mg/d 7 d", "result": "1 (16.7) n (%)"}, {"measurement": "Participants with TEAE: Not related", "setting": "[5]; 0.6 mg/d 7 d", "result": "1 (16.7) n (%)"}, {"measurement": "Participants with TEAE: Related", "setting": "[5]; 0.6 mg/d 7 d", "result": "3 (50.0) n (%)"}, {"measurement": "Participants with TEAE: Severe", "setting": "[5]; 0.6 mg/d 7 d", "result": "0 n (%)"}, {"measurement": "TEAEs by SOC: Eye disorder", "setting": "[5]; 0.6 mg/d 7 d", "result": "0 n (%)"}, {"measurement": "TEAEs by SOC: Gastrointestinal disorders", "setting": "[5]; 0.6 mg/d 7 d", "result": "0 n (%)"}, {"measurement": "TEAEs by SOC: General disorders and administration site conditions", "setting": "[5]; 0.6 mg/d 7 d", "result": "1 (16.7) n (%)"}, {"measurement": "TEAEs by SOC: Investigations", "setting": "[5]; 0.6 mg/d 7 d", "result": "0 n (%)"}, {"measurement": "TEAEs by SOC: Metabolism and nutrition disorders", "setting": "[5]; 0.6 mg/d 7 d", "result": "1 (16.7) n (%)"}, {"measurement": "TEAEs by SOC: Nervous system disorders", "setting": "[5]; 0.6 mg/d 7 d", "result": "2 (33.3) n (%)"}, {"measurement": "TEAEs by SOC: Skin and subcutaneous tissue disorders", "setting": "[5]; 0.6 mg/d 7 d", "result": "1 (16.7) n (%)"}, {"measurement": "Number of TEAEs", "setting": "[5]; 2 mg/d 7 d", "result": 3, "unit": "E"}, {"measurement": "Number of participants with a TEAE leading to discontinuation", "setting": "[5]; 2 mg/d 7 d", "result": "0 n (%)"}, {"measurement": "Number of participants with an SAE", "setting": "[5]; 2 mg/d 7 d", "result": "0 n (%)"}, {"measurement": "Number of participants with at least one TEAE", "setting": "[5]; 2 mg/d 7 d", "result": "2 (33.3) n (%)"}, {"measurement": "Participants with TEAE: Mild", "setting": "[5]; 2 mg/d 7 d", "result": "2 (33.3) n (%)"}, {"measurement": "Participants with TEAE: Moderate", "setting": "[5]; 2 mg/d 7 d", "result": "0 n (%)"}, {"measurement": "Participants with TEAE: Not related", "setting": "[5]; 2 mg/d 7 d", "result": "1 (16.7) n (%)"}, {"measurement": "Participants with TEAE: Severe", "setting": "[5]; 2 mg/d 7 d", "result": "0 n (%)"}, {"measurement": "TEAEs by SOC: Eye disorder", "setting": "[5]; 2 mg/d 7 d", "result": "0 n (%)"}, {"measurement": "TEAEs by SOC: Gastrointestinal disorders", "setting": "[5]; 2 mg/d 7 d", "result": "1 (16.7) n (%)"}, {"measurement": "TEAEs by SOC: General disorders and administration site conditions", "setting": "[5]; 2 mg/d 7 d", "result": "0 n (%)"}, {"measurement": "TEAEs by SOC: Investigations", "setting": "[5]; 2 mg/d 7 d", "result": "1 (16.7) n (%)"}, {"measurement": "TEAEs by SOC: Metabolism and nutrition disorders", "setting": "[5]; 2 mg/d 7 d", "result": "0 n (%)"}, {"measurement": "TEAEs by SOC: Nervous system disorders", "setting": "[5]; 2 mg/d 7 d", "result": "0 n (%)"}, {"measurement": "TEAEs by SOC: Skin and subcutaneous tissue disorders", "setting": "[5]; 2 mg/d 7 d", "result": "0 n (%)"}, {"measurement": "Number of TEAEs", "setting": "[5]; 6 mg/d 7 d", "result": 6, "unit": "E"}, {"measurement": "Number of participants with a TEAE leading to discontinuation", "setting": "[5]; 6 mg/d 7 d", "result": "0 n (%)"}, {"measurement": "Number of participants with an SAE", "setting": "[5]; 6 mg/d 7 d", "result": "0 n (%)"}, {"measurement": "Number of participants with at least one TEAE", "setting": "[5]; 6 mg/d 7 d", "result": "2 (33.3) n (%)"}, {"measurement": "Participants with TEAE: Mild", "setting": "[5]; 6 mg/d 7 d", "result": "2 (33.3) n (%)"}, {"measurement": "Participants with TEAE: Moderate", "setting": "[5]; 6 mg/d 7 d", "result": "1 (16.7) n (%)"}, {"measurement": "Participants with TEAE: Not related", "setting": "[5]; 6 mg/d 7 d", "result": "2 (33.3) n (%)"}, {"measurement": "Participants with TEAE: Related", "setting": "[5]; 6 mg/d 7 d", "result": "2 (33.3) n (%)"}, {"measurement": "Participants with TEAE: Severe", "setting": "[5]; 6 mg/d 7 d", "result": "0 n (%)"}, {"measurement": "TEAEs by SOC: Eye disorder", "setting": "[5]; 6 mg/d 7 d", "result": "1 (16.7) n (%)"}, {"measurement": "TEAEs by SOC: Gastrointestinal disorders", "setting": "[5]; 6 mg/d 7 d", "result": "0 n (%)"}, {"measurement": "TEAEs by SOC: General disorders and administration site conditions", "setting": "[5]; 6 mg/d 7 d", "result": "1 (16.7) n (%)"}, {"measurement": "TEAEs by SOC: Investigations", "setting": "[5]; 6 mg/d 7 d", "result": "0 n (%)"}, {"measurement": "TEAEs by SOC: Metabolism and nutrition disorders", "setting": "[5]; 6 mg/d 7 d", "result": "0 n (%)"}, {"measurement": "TEAEs by SOC: Nervous system disorders", "setting": "[5]; 6 mg/d 7 d", "result": "2 (33.3) n (%)"}, {"measurement": "TEAEs by SOC: Skin and subcutaneous tissue disorders", "setting": "[5]; 6 mg/d 7 d", "result": "1 (16.7) n (%)"}, {"measurement": "cannabis self-administration", "setting": "[6]; 1 mg, global crossover analysis", "result": "reduced"}, {"measurement": "number of individuals choosing to self-administer cannabis", "setting": "[6]; Treatment or Treatment x Dose, McNemar's test", "result": "no significant effect"}, {"measurement": "Percent inhibition of control specific binding", "setting": "[7]", "result": 20, "unit": "%"}]}
